According to PubChem BioAssay (NCI):
Where “and” joins values, the source holds several entries; their conditions need not be identical. Equal values may be shown once.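 Interpolation was linear, between the two tested concentrations surrounding the appropriate level; five concentrations were tested over 48 hours in 96-well plates. GI50 marks 50% less growth. TGI denotes the concentration required for complete inhibition of growth.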

Columns and labels:
Test in all cases: DTP human tumour cell line panel, 48 h
[1] = test system: SK-MEL-5 melanoma
[2] = test system: SNB-19 CNS
[3] = test system: HOP-92 NSCLC
[4] = test system: HCC-2998 colon
[5] = test system: SF-539 CNS
[6] = test system: MOLT-4 leukemia
[7] = test system: HCT-116 colon
[8] = test system: EKVX NSCLC
[9] = test system: UO-31 renal
[10] = test system: K-562 leukemia

Row | SMILES | TGI [1] | TGI [2] | TGI [3] | TGI [4] | TGI [5] | TGI [6] | TGI [7] | TGI [8] | TGI [9] | TGI [10] | GI50 [1] | GI50 [2] | GI50 [3] | GI50 [4] | GI50 [5] | GI50 [6] | GI50 [10] | GI50 [8] | GI50 [7]
1 | Nn1c(-c2ccccc2)n[nH]c1=O | > 100 µM | > 100 µM | > 100 µM | > 100 µM | > 100 µM | > 100 µM | > 100 µM | > 100 µM | > 100 µM |  |  |  |  |  |  |  |  |  | 
2 | O=C(OCc1ccccc1)N1CCNCCN(C(=O)OCc2ccccc2)CCNCC1 | 26.7 µM | > 100 µM | > 100 µM |  | 29.2 µM | 50.4 µM | 42.9 µM | > 100 µM | 38.5 µM | > 100 µM |  |  |  |  |  |  |  |  | 
3 | CCN(CC)C(=S)N/N=C/c1cc([N+](=O)[O-])ccc1O | 8.94 µM | 73 µM |  | 40.3 µM | 28.3 µM | 25.1 µM | 12 µM | 78.9 µM | > 100 µM | 18.1 µM |  |  |  |  |  |  |  |  | 
4 | Cc1cccc(Cn2c3c(c4cc(O)ccc42)C(=O)c2ccccc2C3=O)c1 | > 100 µM | > 100 µM |  |  | 26.9 µM | > 100 µM | > 100 µM | 49 µM | > 100 µM | > 100 µM |  |  |  |  |  |  |  |  | 
5 | O=C(NCc1ccccc1)c1n[nH][nH]c1=O | > 100 µM | > 100 µM |  | > 100 µM |  | > 100 µM | > 100 µM | > 100 µM | > 100 µM | > 100 µM |  |  |  |  |  |  |  |  | 
6 | CCOC(=O)Nc1sc2c(c1C#N)CCCC2 | > 100 µM | > 100 µM | > 100 µM | > 100 µM |  | > 100 µM | > 100 µM | > 100 µM | > 100 µM | > 100 µM |  |  |  |  |  |  |  |  | 
7 | O=C1c2cc3c(cc2-c2c1c1ccc(F)cc1c(=O)n2C[C@H](O)[C@@H](O)[C@H](O)CO)OCO3 | 0.183 µM | 3.01 µM | 0.69 µM | 0.38 µM | 0.138 µM | 0.426 µM |  | 3.05 µM |  | > 100 µM | 0.0568 µM | 0.0513 µM | 0.18 µM | 0.14 µM | 0.0289 µM | 0.0334 µM | 0.0645 µM | 0.308 µM | 
8 | Cc1ccnc(NS(=O)(=O)c2ccc(N=[N+]=[N-])cc2)n1 | > 100 µM | > 100 µM | > 100 µM |  | > 100 µM | > 60.4 µM | > 100 µM | > 100 µM | > 100 µM | > 100 µM |  |  |  |  |  |  |  |  | 
9 | Cc1ccc(N(Cc2ccccc2)Cc2ccccc2)cc1 | > 100 µM | > 100 µM |  |  | > 100 µM | 79.3 µM | > 100 µM | > 100 µM | > 100 µM | > 100 µM |  |  |  |  |  |  |  |  | 
10 | NC(N)=Nc1ccc(CC(N)NCC(=O)O)cc1 (stereo unspecified) | > 25 µM |  | > 25 µM | > 25 µM |  | > 25 µM | > 25 µM | > 25 µM | > 25 µM | > 25 µM |  |  |  |  |  |  |  |  | 
11 | C[C@]12CC[C@H](O)CC1=CC[C@@H]1[C@@H]2CC[C@]2(C)C(=N/N)/C(=N\O)C[C@@H]12 | > 100 µM | > 100 µM | 11.8 µM |  | > 100 µM | > 100 µM | > 100 µM | > 100 µM | > 100 µM | > 100 µM |  |  |  |  |  |  |  |  | 
12 | CC1(C(=O)O)CCC2(C)CCC3(C)C(=CC(=O)C4C5(C)CCC(O)C(C)(C)C5CCC43C)C2C1 (stereo unspecified) | 54.3 µM | > 100 µM |  | 87.3 µM | 32.5 µM | > 100 µM | 63 µM | > 100 µM | 57.1 µM |  |  |  |  |  |  |  |  |  | 
13 | COc1cc(S(=O)(=O)Nc2nc(-c3ccc(N4C(=O)C(CC(=O)O)SC4c4cccs4)cc3)cs2)ccc1Cl (stereo unspecified) | > 100 µM | > 100 µM | 89.5 µM | > 100 µM | > 100 µM | 64.6 µM | > 100 µM |  | 45.2 µM | > 100 µM |  |  |  |  |  |  |  |  | 
14 | CCOC(=O)c1c(CN2CCCC2)n(-c2ccccc2)c2cc(Br)c(O)cc12 | 26.4 µM | 33.3 µM | 44 µM |  |  | 41.7 µM | 30.3 µM | 39.7 µM | 24.5 µM | 41.2 µM |  |  |  |  |  |  |  |  | 
15 | Oc1ccc2c(c1)c1c(n2CCN2CCOCC2)-c2ccccc2CC1 |  | > 100 µM |  |  | 44.9 µM | > 100 µM | > 100 µM | 92.5 µM | > 100 µM | > 100 µM |  |  |  |  |  |  |  |  | 
16 | CC1=C(Cl)C=CP(=O)(Oc2ccccc2)C1 (stereo unspecified) | > 100 µM | > 100 µM | > 100 µM | > 100 µM |  | > 10 µM | > 100 µM | > 100 µM | > 100 µM | > 10 µM |  |  |  |  |  |  |  |  | 
17 | S=C(N/N=C(/c1ccccc1)c1ccccn1)N(Cc1ccccn1)Cc1ccccn1 | 3.12 µM | 2.26 µM | 1.45 µM |  | 3.45 µM | 16.1 µM | 1.59 µM | 1.7 µM | 1.65 µM | > 100 µM |  |  |  |  |  |  |  |  | 

Row | SMILES | TGI [1] | TGI [2] | TGI [3] | TGI [4] | TGI [5] | TGI [6] | TGI [7] | TGI [8] | TGI [9] | TGI [10] | GI50 [1] | GI50 [2] | GI50 [3] | GI50 [4] | GI50 [5] | GI50 [6] | GI50 [10] | GI50 [8] | GI50 [7]
18 | Nn1c(Nc2ccc(S(=O)(=O)Nc3ncccn3)cc2)nnc(/C=C/c2c(O)ccc3ccccc23)c1=O |  | > 100 µM | > 100 µM | 57.7 µM |  | > 100 µM | 51.1 µM | 69.6 µM | > 100 µM | > 100 µM |  |  |  |  |  |  |  |  | 
19 | CC1=Nc2ccccc2OC(C)=C1N=Nc1ccc2nc(C)[nH]c2c1 |  | > 100 µM | > 100 µM | > 100 µM | > 100 µM | > 100 µM | > 100 µM | > 100 µM |  | > 100 µM |  |  |  |  |  |  |  |  | 
20 | Oc1ccc(-c2nc3ccc(Br)cc3s2)cc1 | 60.2 µM | 85.2 µM |  |  | 35.8 µM | > 100 µM | 64.1 µM | 28.6 µM | 44.4 µM | 73.1 µM |  |  |  |  |  |  |  |  | 
21 | COc1cccc(Nc2nc(-c3cccs3)nc3cc(OC)c(OC)cc23)c1 | 44.5 µM | > 100 µM | 51.9 µM |  | 45.7 µM | > 100 µM | 54 µM | > 100 µM | > 100 µM | > 100 µM |  |  |  |  |  |  |  |  | 
22 | CC1CN(C)c2ccccc2N=C1NN (stereo unspecified) | > 100 µM | > 100 µM |  |  |  | > 100 µM | > 100 µM | > 100 µM | > 100 µM | > 100 µM |  |  |  |  |  |  |  |  | 
23 | Cc1ccc(-c2cc(-c3ccco3)c(C#N)c(=S)n2C2OC(CO)C(O)C(O)C2O)cc1 (stereo unspecified) | 18.2 µM and 30.8 µM | > 100 µM |  | > 100 µM | 28 µM and > 100 µM | > 100 µM | 18.5 µM and > 100 µM | > 100 µM | 52 µM and > 100 µM | > 100 µM | 5.75 µM and 14.9 µM |  |  |  | 11.5 µM and 37.2 µM | 7.35 µM and 18.7 µM |  |  | 4.91 µM and 25.3 µM
24 | COc1ccc(-n2c(C)nc3ccc(NC(=S)Nc4ccccc4)cc3c2=O)cc1 | > 100 µM | > 100 µM |  | > 100 µM |  | 99.8 µM | > 100 µM | > 100 µM | > 100 µM | > 100 µM |  |  |  |  |  |  |  |  | 
25 | Nc1nc(SCCC/C=C/I)nc2c1ncn2C1OC(COP(=O)(O)O)C(O)C1O (stereo unspecified) | > 100 µM | > 100 µM | > 100 µM | > 100 µM | > 100 µM | > 100 µM | > 100 µM | > 100 µM |  | > 100 µM |  |  |  |  |  |  |  |  | 
26 | N[C@@H](CCC(=O)NCP(=O)(O)O)C(=O)O | > 100 µM | > 100 µM |  | > 100 µM | > 100 µM | > 100 µM | > 100 µM | > 100 µM | > 100 µM | > 100 µM |  |  |  |  |  |  |  |  | 
27 | O=c1[nH]c(=S)[nH]c2c1C(c1ccc([N+](=O)[O-])cc1)c1c([nH]c(=S)[nH]c1=O)O2 | > 100 µM | > 100 µM | > 100 µM |  |  | > 100 µM | > 100 µM | > 100 µM | > 100 µM | > 100 µM |  |  |  |  |  |  |  |  | 
28 | CC1(C)O[C@H]2OC(CO[Si](C)(C)C(C)(C)C)C(N=[N+]=[N-])[C@H]2O1 (stereo partly specified) |  | 36.1 µM | 75.9 µM | 32.2 µM | 36 µM | 33.9 µM | 28.9 µM | 39.3 µM | 32.3 µM | 29.1 µM |  |  |  |  |  |  |  |  | 
29 | CCN(CC)CCNC(=O)c1cc2cc(NC(=O)c3cc4cc([N+](=O)[O-])ccc4[nH]3)ccc2[nH]1 | > 100 µM | > 100 µM | > 50.7 µM | > 73.6 µM | > 49.7 µM | > 100 µM | > 100 µM | > 100 µM | > 100 µM |  |  |  |  |  |  |  |  |  | 
30 | COC(=O)C1CC(C=[N+](C)C)=C(SC)N1C(=O)OCc1ccccc1 (stereo unspecified) | > 100 µM | > 100 µM | > 100 µM | > 100 µM |  | > 100 µM | > 100 µM | > 100 µM | > 100 µM | > 100 µM |  |  |  |  |  |  |  |  | 
31 | N#CC(Cc1ccccc1)N(CCC1=CCCCC1)C(c1ccccc1)c1ccccc1 (stereo unspecified) | > 100 µM | > 100 µM | > 100 µM | > 100 µM |  | > 100 µM | > 100 µM | > 100 µM | > 100 µM | > 100 µM |  |  |  |  |  |  |  |  | 
32 | CC(=O)Nn1c(=S)[nH]c2ccccc21 | > 100 µM | > 100 µM | > 100 µM | > 100 µM |  | > 100 µM | > 100 µM | > 100 µM | > 100 µM | > 100 µM |  |  |  |  |  |  |  |  | 
33 | c1ccc2c3[nH]c(c2c1)=Nc1ccc(cc1)-c1nc2cc(ccc2o1)N=c1[nH]c(c2ccccc12)=Nc1ccc2nc(oc2c1)-c1ccc(cc1)N=3 | > 100 µM | > 100 µM |  | > 100 µM |  | > 100 µM | > 100 µM | > 100 µM | > 100 µM | > 100 µM |  |  |  |  |  |  |  |  | 
34 | C=CC1(CC/C(=C\[N+](=O)[O-])c2ccc(OC)c(OC)c2)OCC(C)(C)CO1 | 87.2 µM | 35.7 µM | 54.8 µM | 46.2 µM |  | 6.05 µM | 71.9 µM | 40.1 µM | 31.6 µM | > 100 µM |  |  |  |  |  |  |  |  | 
